For one assay, the target named is T1, CDK1/CycB (Homo sapiens, UniProt P06493).
T1 construct: GST; purchased ProQinase GmbH, Freiburg; host or cells: baculovirus-infected insect cells (Sf9)
Nature of the assay: CDK1/CycB kinase assay. The format is biochemical. The settings on record: histone IIIS substrate, 0.5 μm ATP. The procedure: Recombinant CDK1- and CycB-GST-fusion proteins, purified from baculovirus-infected insect cells (Sf9), were purchased from ProQinase GmbH, Freiburg. Histone IIIS, used as a kinase substrate, is available commercially from the Sigma Company.
CDK1/CycB (200 ng/measuring point) was incubated for 10 minutes at 22° C. in the presence of various concentrations of test substances (0 μm, as well as within the range of 0.01-100 μm) in assay buffer [50 mmol of tris/HCl, pH 8.0, 10 mmol of MgCl2, 0.1 mmol of Na ortho-vanadate, 1.0 mmol of dithiothreitol, 0.5 μm of adenosine triphosphate (ATP), 10 μg/measuring point of histone IIIS, 0.2 μCi/measuring point of 33P-gamma ATP, 0.05% NP40, 1.25% dimethyl sulfoxide]. The reaction was stopped by adding EDTA solution (250 mmol, pH 8.0, 15 μl/measuring point).
(§1) From each reaction batch, 15 μl was applied to P30 filter strips (Wallac Company), and non-incorporated 33P-ATP was removed by subjecting the filter strips to three washing cycles for 10 minutes each in 0.5% phosphoric acid. After the filter strips were dried for one hour at 70° C., the filter strips were covered with scintillator strips (MeltiLex™ A, Wallac Company) and baked for one hour at 90° C. The amount of incorporated 33P (substrate phosphorylation) was determined by scintillation measurement in a gamma-radiation measuring device (Wallac).

A further assay addresses T2, CDK2/CycE (Homo sapiens, UniProt P24941).
T2 construct: GST; purchased ProQinase GmbH, Freiburg; host or cells: baculovirus-infected insect cells (Sf9)
Nature of the assay: CDK2/CycE kinase assay. The settings on record: histone IIIS substrate, 0.5 μm ATP. It counts as biochemical. As for the experimental part: Recombinant CDK2- and CycE-GST-fusion proteins, purified from baculovirus-infected insect cells (Sf9), were purchased by ProQinase GmbH, Freiburg. Histone IIIs, which was used as a kinase substrate, was purchased by the Sigma Company.
CDK2/CycE (50 ng/measuring point) was incubated for 10 minutes at 22° C. in the presence of various concentrations of test substances (0 μm, as well as within the range of 0.01-100 μm) in assay buffer [50 mmol of tris/HCl, pH 8.0, 10 mmol of MgCl2, 0.1 mmol of Na ortho-vanadate, 1.0 mmol of dithiothreitol, 0.5 μm of adenosine triphosphate (ATP), 10 μg/measuring point of histone IIIS, 0.2 μCi/measuring point of ^33P-gamma ATP, 0.05% NP40, 12.5% dimethyl sulfoxide]. The reaction was stopped by adding EDTA solution (250 mmol, pH 8.0, 15 μl/measuring point).
From each reaction batch, 15 μl was applied to P30 filter strips (Wallac Company), and non-incorporated ^33P-ATP was removed by subjecting the filter strips to three washing cycles for 10 minutes each in 0.5% phosphoric acid. After the filter strips were dried for one hour at 70° C., the filter strips were covered with scintillator strips (MeltiLex™ A, Wallac Company) and baked for one hour at 90° C. The amount of incorporated ^33P (substrate phosphorylation) was determined by scintillation measurement in a gamma-radiation measuring device (Wallac).

The target in assay [1] is T3, VEGF receptor tyrosine kinase-2 (Homo sapiens, UniProt P35968).
T3 construct: GST; made in house; host or cells: baculovirus-infected insect cells (Sf9)
Nature of the assay: VEGF receptor-2 kinase assay. The format is biochemical. The settings on record: poly-(Glu4Tyr) substrate, 8 μmol ATP; read-out: VEGF-R2 IC50. As for the experimental part: VEGF Receptor-2 Kinase Assay
Recombinant VEGF receptor tyrosine kinase-2 was purified as a GST fusion protein from baculovirus-infected insect cells (Sf9). Poly-(Glu4Tyr), which was used as a kinase substrate, was purchased by the Sigma Company. VEGF receptor tyrosine kinase (90 ng/measuring point) was incubated for 10 minutes at 22° C. in the presence of various concentrations of test substances (0 μm, as well as within the range of 0.001-30 μm) in 30 μl of assay buffer [40 mmol of Tris/HCl, pH 5.5, 10 mmol of MgCl2, 1 mmol of MnCl2, 3 μmol of Na ortho-vanadate, 1.0 mmol of dithiothreitol, 8 μmol of adenosine trisphosphate (ATP), 0.96 μg/measuring point of poly-(Glu4Tyr), 0.2 μCi/measuring point of 33P-gamma ATP, 1.4% dimethyl sulfoxide]. The reaction was stopped by adding EDTA solution (250 mmol, pH 8.0, 15 μl/measuring point).
as §1

Assay [2] concerns MCF7, hormone-independent human breast cancer cells. Nature of the assay: Proliferation assay MCF7. It counts as cell-based. The settings on record: 96 h, 4 days, crystal violet. From the text:
(§2) Cultivated human tumor cells (MCF7, hormone-independent human breast cancer cells, related to ATCC HTB22; NCI-H460, human non-small-cell lung cancer cells, ATCC HTB-177, DU 145, hormone-independent human prostate cancer cells, ATCC HTB-81; MaTu-MDR, hormone-independent, multiple pharmaceutical agent-resistant human breast cancer cells, EPO-GmbH, Berlin) were flattened out at a density of about 3000-5000 cells/measuring point, depending on the growth rate of the respective cells, in a 96-well multititer plate in 200 μl of the corresponding growth medium. After 24 hours, the cells of one plate (zero-point plate) were colored with crystal violet (see below), while the medium of the other plates was replaced by fresh culture medium (200 μl), to which the test substances were added in various concentrations (0 μm, as well as in the range of 0.01-30 μm; the final concentration of the solvent dimethyl sulfoxide was 0.5%). The cells were incubated for 4 days in the presence of test substances. The cell proliferation was determined by coloring the cells with crystal violet: the cells were fixed by adding 20 μl/measuring point of an 11% glutaric aldehyde solution for 15 minutes at room temperature. After three washing cycles of the fixed cells with water, the plates were dried at room temperature. The cells were colored by adding 100 μl/measuring point of a 0.1% crystal violet solution (the pH was set at 3 by adding acetic acid). After three washing cycles of the colored cells with water, the plates were dried at room temperature. The dye was dissolved by adding 100 μl/measuring point of a 10% acetic acid solution. The extinction was determined by photometry at a wavelength of 595 nm. The change of cell growth, in percent, was calculated by normalization of the measured values to the extinction values of the zero-point plate (=0%) and the extinction of the untreated (0 μm) cells (=100%).

Assay [3] has as its system NCI-H460, human non-small-cell lung cancer cells. Nature of the assay: Proliferation assay H460. The format is cell-based. The settings on record: NCI-H460, 96 h, 4 days, crystal violet.
Source text: as §2

Assay [4] concerns DU 145, hormone-independent human prostate cancer cells. Nature of the assay: Proliferation assay DU145. It counts as cell-based. The settings on record: DU-145, 96 h, 4 days, crystal violet.
Source text: as §2

The next assay has as its system MaTu-ADR. Nature of the assay: Proliferation assay MaTu-ADR. It counts as cell-based. The note with it: Homo sapiens, 96 h; MaTu-ADR cells, 4 days, crystal violet.
Source text: as §2

A further assay has as its target Human Carboanhydrase-2 (Homo sapiens, UniProt P00918). Nature of the assay: Carboanhydrase assay. It counts as biochemical. The note with it: 4-nitrophenyl acetate hydrolysis, 60 minutes; read-out: Inhibition of Human Carboanhydrase-2 IC50. The procedure: 2 μl of the test compounds, dissolved in DMSO (100× the final concentration), in a concentration range of 0.03-10 μm (final), was pipetted as 4× determinations into the holes of a 96-hole microtiter plate. Holes that contained the solvent without test compounds were used as reference values (1. Holes without carboanhydrase for correction of the non-enzymatic hydrolysis of the substrate, and 2. Holes with carboanhydrase for determining the activity of the non-inhibited enzyme).
188 μl of assay buffer (10 mmol of Tris/HCl, pH 7.4, 80 mmol of NaCl), with or without 3 units/hole on carboanhydrase I or II, was pipetted into the holes of the microtiter plate.

T3 sequence (P35968 20-1356): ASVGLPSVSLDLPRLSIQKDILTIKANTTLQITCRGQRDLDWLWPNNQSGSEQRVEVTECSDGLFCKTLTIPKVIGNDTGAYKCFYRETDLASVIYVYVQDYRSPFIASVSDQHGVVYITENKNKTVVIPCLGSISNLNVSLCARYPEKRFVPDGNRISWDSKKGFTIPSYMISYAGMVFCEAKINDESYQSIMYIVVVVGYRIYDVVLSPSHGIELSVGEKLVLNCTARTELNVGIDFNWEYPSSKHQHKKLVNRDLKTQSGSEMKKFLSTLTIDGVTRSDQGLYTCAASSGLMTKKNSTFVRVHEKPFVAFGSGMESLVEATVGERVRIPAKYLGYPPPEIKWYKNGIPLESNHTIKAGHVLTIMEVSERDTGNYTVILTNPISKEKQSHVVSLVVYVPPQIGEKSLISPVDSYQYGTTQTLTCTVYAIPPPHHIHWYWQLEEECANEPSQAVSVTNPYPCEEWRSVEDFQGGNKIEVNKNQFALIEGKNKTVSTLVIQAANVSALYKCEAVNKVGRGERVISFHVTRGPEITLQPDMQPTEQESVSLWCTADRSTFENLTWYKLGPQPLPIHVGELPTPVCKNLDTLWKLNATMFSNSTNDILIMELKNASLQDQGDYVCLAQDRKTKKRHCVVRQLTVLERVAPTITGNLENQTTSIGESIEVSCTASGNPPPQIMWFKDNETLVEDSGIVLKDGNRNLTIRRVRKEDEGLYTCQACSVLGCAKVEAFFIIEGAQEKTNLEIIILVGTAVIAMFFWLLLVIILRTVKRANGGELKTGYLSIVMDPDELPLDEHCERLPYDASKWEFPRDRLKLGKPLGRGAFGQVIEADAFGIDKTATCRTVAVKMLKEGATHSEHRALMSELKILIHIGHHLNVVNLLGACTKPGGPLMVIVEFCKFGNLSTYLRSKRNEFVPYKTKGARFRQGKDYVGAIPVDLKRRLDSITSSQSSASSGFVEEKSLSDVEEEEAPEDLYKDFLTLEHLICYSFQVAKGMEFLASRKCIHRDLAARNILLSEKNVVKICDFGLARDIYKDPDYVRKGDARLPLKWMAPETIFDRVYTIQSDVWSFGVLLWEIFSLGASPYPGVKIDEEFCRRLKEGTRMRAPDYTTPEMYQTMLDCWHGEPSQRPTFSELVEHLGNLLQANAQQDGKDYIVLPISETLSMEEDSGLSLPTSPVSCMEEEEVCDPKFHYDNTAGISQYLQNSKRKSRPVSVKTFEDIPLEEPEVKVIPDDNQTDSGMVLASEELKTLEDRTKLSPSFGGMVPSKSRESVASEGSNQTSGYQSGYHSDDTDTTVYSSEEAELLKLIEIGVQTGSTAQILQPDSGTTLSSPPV
T1 sequence (P06493 whole entry): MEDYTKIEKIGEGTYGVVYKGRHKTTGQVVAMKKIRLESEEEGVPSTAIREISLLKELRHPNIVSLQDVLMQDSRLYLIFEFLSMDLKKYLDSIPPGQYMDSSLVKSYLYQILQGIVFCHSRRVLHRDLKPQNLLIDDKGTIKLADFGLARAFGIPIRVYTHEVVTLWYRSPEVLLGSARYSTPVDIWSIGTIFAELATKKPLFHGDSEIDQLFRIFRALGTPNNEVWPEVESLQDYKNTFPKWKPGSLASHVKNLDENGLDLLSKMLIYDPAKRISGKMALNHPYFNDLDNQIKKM
T1 sequence (P14635 whole entry partner): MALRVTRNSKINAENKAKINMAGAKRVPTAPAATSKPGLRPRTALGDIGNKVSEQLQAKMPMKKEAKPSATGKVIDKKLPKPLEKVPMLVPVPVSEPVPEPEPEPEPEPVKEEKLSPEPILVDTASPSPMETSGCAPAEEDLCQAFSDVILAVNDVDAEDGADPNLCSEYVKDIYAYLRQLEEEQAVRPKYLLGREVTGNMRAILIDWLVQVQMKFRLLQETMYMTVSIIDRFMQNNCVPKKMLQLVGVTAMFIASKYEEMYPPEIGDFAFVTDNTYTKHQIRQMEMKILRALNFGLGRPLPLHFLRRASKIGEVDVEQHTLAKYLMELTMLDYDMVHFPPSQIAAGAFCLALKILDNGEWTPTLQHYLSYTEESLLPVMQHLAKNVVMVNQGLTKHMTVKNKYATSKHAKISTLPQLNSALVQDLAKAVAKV

One may read the IC50 as the concentration that gives 50% inhibition. For the molecule `Cc1cc(Nc2ncc(Br)c(N[C@H](C)[C@@H](C)O)n2)cc(Cl)c1S(N)(=O)=O` [Example 4], the IC50 at CDK1/CycB is 5 nM; against CDK2/CycE, 10 nM; in assay [1], 130 nM; in assay [2], 120 nM; in assay [3], less than 100 nM; in assay [4], 100 nM. In the assay on MaTu-ADR, this molecule came in with an IC50 of less than 100 nM.

In the case of `Cc1cc(Nc2ncc(Br)c(O[C@H](C)[C@@H](C)O)n2)cc(Br)c1S(N)(=O)=O` [Example 7], the IC50 worked out at 12 nM at CDK1/CycB; 15 nM at CDK2/CycE; 56 nM in assay [1]; 120 nM in assay [2]; 160 nM in assay [3]; 160 nM in assay [4]. The IC50 in the assay on MaTu-ADR is 50 nM; at Human Carboanhydrase-2, 6000 nM.

`Cc1cc(Nc2ncc(Br)c(N[C@H](C)[C@@H](C)O)n2)cc(C)c1S(N)(=O)=O` [Example 3]: the IC50 against CDK1/CycB was 5 nM; at CDK2/CycE it was 6 nM; in assay [1] it was 19 nM; in assay [2], less than 100 nM; in assay [3], 50 nM; in assay [4] it was 70 nM. Further, the IC50 is 40 nM in the assay with MaTu-ADR and greater than 10000 nM at Human Carboanhydrase-2.

Turning to `C[C@@H](Nc1nc(Nc2ccc(S(N)(=O)=O)cc2)ncc1Br)C(C)(C)O` [Example 271 from WO 02/096888, 4-[5-Bromo-4-((R)-2-hydroxy-1,2-dimethyl-propylamino)-pyrimidin-2-ylamino]-benzenesulfonamide, reference compound], the IC50 at CDK1/CycB was less than 10 nM; on CDK2/CycE it was less than 10 nM; in assay [1] it was 250 nM; in assay [2] it was 180 nM; in assay [3], 200 nM; in assay [4], 150 nM. For the same molecule, the IC50 was less than 100 nM with MaTu-ADR and 530 nM on Human Carboanhydrase-2.

For the molecule `C[C@@H](O)[C@@H](C)Nc1nc(Nc2ccc(S(N)(=O)=O)cc2)ncc1Br` [Example 275 from WO 02/096888, 4-[5-Bromo-4-((1R,2R)-2-hydroxy-1-methyl-propylamino)-pyrimidin-2-ylamino]-benzenesulfonamide, reference compound], the 50% inhibitory concentration (IC50) on CDK1/CycB is less than 10 nM; on CDK2/CycE, less than 10 nM; in assay [1] it was 130 nM; in assay [2], 50 nM; in assay [3], 40 nM; in assay [4], 70 nM. For the same molecule, the figures for the IC50 in the assay on MaTu-ADR and on Human Carboanhydrase-2 were 20 nM and 810 nM, respectively.

In the case of `Cc1cc(Nc2ncc(Br)c(N[C@H](C)CO)n2)cc(C)c1S(N)(=O)=O` [Example 1, 4-[5-Bromo-4-((R)-2-hydroxy-1-methyl-ethylamino)-pyrimidin-2-ylamino]-2,6-dimethyl-benzenesulfonamide], the IC50 was found to be 15 nM against CDK1/CycB; 14 nM against CDK2/CycE; 18 nM in assay [1]; 600 nM in assay [2]; 300 nM in assay [3]; 400 nM in assay [4]. In addition, the IC50 in the assay with MaTu-ADR is 400 nM; at Human Carboanhydrase-2, greater than 10000 nM.

`Cc1cc(Nc2ncc(Br)c(N[C@H](C)C(C)(C)O)n2)cc(C)c1S(N)(=O)=O` [Example 2]: the IC50 against CDK1/CycB is 3 nM; on CDK2/CycE it was 2 nM; in assay [1], 20 nM; in assay [2] it was less than 100 nM; in assay [3], 130 nM; in assay [4] it was 90 nM. Besides, the IC50 in the assay with MaTu-ADR was 70 nM; on Human Carboanhydrase-2, greater than 10000 nM.

Regarding `Cc1cc(Nc2ncc(Br)c(O[C@H](C)[C@@H](C)O)n2)cc(C)c1S(N)(=O)=O` [Example 6, 4-[5-Bromo-4-((1R,2R)-2-hydroxy-1-methyl-propoxy)-pyrimidin-2-ylamino]-2,6-dimethyl-benzenesulfonamide], the IC50 against CDK1/CycB worked out at 8 nM; against CDK2/CycE, 8 nM; in assay [1], 39 nM; in assay [2] it was 50 nM; in assay [3], 50 nM; in assay [4] it was 50 nM. The IC50 with MaTu-ADR was 20 nM; at Human Carboanhydrase-2, greater than 10000 nM.
